Data set [1] deals with T1, human GP IIb/IIIa receptor (Homo sapiens, UniProt P05106+P08514).
T1 construct: human GPIIb/IIIa purified from human platelets was immobilized on a 96-well solid plate; purchased Enzyme Research Laboratories Inc. (South Bend, Ind.); host or cells: human platelets (natural source, detergent-solubilised)
In words: GPIIb/IIIa affinity assay (displacement of tritiated reference compound from immobilized receptor). It counts as binding. The note with it: purified human GPIIb/IIIa, 60 nM 3H-labeled reference compound, 1 hour at room temperature. How it is done: Affinity assay: In the first step human GPIIb/IIIa purified from human platelets was immobilized on a 96-well solid plate. After 48 hours the plates were washed and the unspecific binding sites were blocked with Roti®-Block. 2. In the next step, the plates were simultaneously incubated with a tritium labeled known GPIIb/IIIa binder (^3H) mixed with increasing concentrations of the novel compounds (inhibitor). The higher the affinity of the inhibitor, the lower the bound fraction of the tritiated known GPIIb/IIIa binder (^3H) was. The fraction of tritiated compound (^3H), which is not displaced by inhibitor, was measured in a microplate scintillation counter.
Purified human glycoprotein IIb/IIIa (20 mM Tris-HCl, 0.1 M NaCl, 0.1% Triton X-100, 1 mM CaCl2, 0.05% NaN3, 50% Glycerol, pH 7.4) was purchased from Enzyme Research Laboratories Inc. (South Bend, Ind.). The GPIIb/IIIa receptor was diluted in phosphate-buffered saline (Dulbecco's Phosphate Buffered Saline (D-PBS (+)) with calcium and magnesium, GIBCO®, Invitrogen) with 0.01% bovine serum albumin (albumin from bovine serum—lyophilized powder, 96%, Sigma).
The GPIIb/IIIa receptor was immobilized 48 hours at least (100 μL per well, 48 to maximum 96 hours) on a 96-well solid plate (Immuno Plate MaxiSorp™, Nunc, Roskilde, Denmark) at 277 K to 280 K and at a concentration of 0.1 μg per well to 1 μg per well. As negative control one row of the plate (n=8) was incubated just with 2% bovine serum albumin (200 μL per well, albumin from bovine serum—lyophilized powder, ≧96%, Sigma, diluted in D-PBS (+)).
After washing three times with the wash buffer (230 μL per well, Dulbecco's Phosphate Buffered Saline (D-PBS (−)) contains no calcium or magnesium, GIBCO®, Invitrogen) residual exposed plastic and unspecific binding sites were blocked by incubating the plate with a special blocking solution (200 μL per well, Roti®-Block, Car Roth GmbH Co KG, Karlsruhe) containing 2% bovine serum albumin (Albumin from bovine serum—lyophilized powder, ≧96%, Sigma) 1 hour at room temperature.
After washing three times with the wash buffer 50 μL of tritiated reference compound (60 nM, ^3H-labeled compound) and 50 μL of novel compound (inhibitor) were simultaneously added to each well and incubated for 1 hour at room temperature. Several concentrations of each novel inhibitor (0.1, 1, 2, 5, 10, 20 50, 100, 200, 500, 1000, 2000, 5000, 10000 and 20000 nM) were investigated. At each concentration of inhibitor a fourfold determination was performed.
The maximum value of tritiated reference compound was determined without addition of inhibitor (n=8). To exclude unspecific binding of ^3H— reference compound wells without glycoprotein receptors were used as negative controls (n=12, identically treated just without GPIIb/IIIa receptors).
After one hour the plate was washed three times with phosphate-buffered saline (200 μL per well, Dulbecco's Phosphate Buffered Saline (D-PBS (+)), GIBCO®, Invitrogen). Following 140 μL of liquid scintillation cocktail (MicroScint™ 40 aqueous, Perkin Elmer) was added to each well. After 15 min at room temperature the plates were measured at the microplate scintillation counter (TopCount NXT v2.13, Perkin Elmer, Packard Instrument Company).
In the first step human glycoprotein IIb/IIIa, which is purified from human platelets, was immobilized on a 96-well solid plate. After 48 hours at least the plates were washed and the unspecific binding sites were blocked with Roti®-Block. In the next step, the plates were simultaneously incubated with a tritium labeled reference compound and the novel small molecule compound (inhibitor). The higher the affinity of the inhibitor, the smaller is the bound fraction of reference compound. The fraction of tritiated reference compound, which is not displaced by inhibitor, was measured at a microplate scintillation counter. The higher the affinity of the inhibitor, the smaller is the bound fraction of tritium-labeled reference compound. […]

Data set [2] can be described thus: Relaxivity measurements at 1.41 T in water and plasma. The note with it: relaxivity normalized to Gd, 37° C. It counts as physicochemical. The method, then: Relaxivity measurements at 1.41 T were performed using a MiniSpec mq60 spectrometer (Bruker Analytik, Karlsruhe) operating at a resonance frequency of 60 MHz and a temperature of 37° C. The T1 relaxation times were determined using the standard inversion recovery method. The T2 measurements were done by using the Carr-Purcell-Meiboom-Gill (CPMG) pulse sequence. All measurements were done at concentrations between 0.05 mM and 1 mM of Gd in water and plasma.
The relaxivities ri (where i=1, 2) were calculated on the basis of the measured relaxation rates Ri in water and plasma:
where Ri(0) represent the relaxation rate of the respective solvent and CGd the concentration of the compound normalized to the Gadolium.

T1 sequence (P08514 32-887 limits assumed): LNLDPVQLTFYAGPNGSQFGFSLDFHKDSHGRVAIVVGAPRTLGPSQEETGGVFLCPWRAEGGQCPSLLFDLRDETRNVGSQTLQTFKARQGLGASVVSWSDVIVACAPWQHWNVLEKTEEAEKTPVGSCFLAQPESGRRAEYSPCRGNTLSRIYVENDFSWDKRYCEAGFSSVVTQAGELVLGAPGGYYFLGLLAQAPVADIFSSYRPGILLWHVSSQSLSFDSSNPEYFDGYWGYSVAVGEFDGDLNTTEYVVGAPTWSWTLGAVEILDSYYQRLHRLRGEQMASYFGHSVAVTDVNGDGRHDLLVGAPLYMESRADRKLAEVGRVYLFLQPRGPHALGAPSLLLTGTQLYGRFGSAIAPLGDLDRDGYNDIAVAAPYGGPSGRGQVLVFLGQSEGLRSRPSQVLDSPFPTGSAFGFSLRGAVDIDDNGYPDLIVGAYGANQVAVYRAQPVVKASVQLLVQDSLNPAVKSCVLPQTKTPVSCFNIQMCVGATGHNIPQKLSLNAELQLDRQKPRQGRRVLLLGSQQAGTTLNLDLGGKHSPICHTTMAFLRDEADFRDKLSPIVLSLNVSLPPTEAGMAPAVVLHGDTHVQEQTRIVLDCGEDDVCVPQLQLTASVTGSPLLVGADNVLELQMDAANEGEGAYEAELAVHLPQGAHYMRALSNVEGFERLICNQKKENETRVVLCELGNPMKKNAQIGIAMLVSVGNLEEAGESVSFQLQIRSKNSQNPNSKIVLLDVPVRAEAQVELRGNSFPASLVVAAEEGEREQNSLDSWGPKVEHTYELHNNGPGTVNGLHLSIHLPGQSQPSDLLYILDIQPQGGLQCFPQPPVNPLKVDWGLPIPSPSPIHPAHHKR
T1 sequence (P08514 891-1039 partner limits assumed): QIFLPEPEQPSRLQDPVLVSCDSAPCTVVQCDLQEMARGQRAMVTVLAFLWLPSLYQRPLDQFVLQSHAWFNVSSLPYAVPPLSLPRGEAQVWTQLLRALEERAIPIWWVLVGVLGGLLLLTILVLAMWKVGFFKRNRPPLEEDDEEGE
T1 sequence (P05106 27-788): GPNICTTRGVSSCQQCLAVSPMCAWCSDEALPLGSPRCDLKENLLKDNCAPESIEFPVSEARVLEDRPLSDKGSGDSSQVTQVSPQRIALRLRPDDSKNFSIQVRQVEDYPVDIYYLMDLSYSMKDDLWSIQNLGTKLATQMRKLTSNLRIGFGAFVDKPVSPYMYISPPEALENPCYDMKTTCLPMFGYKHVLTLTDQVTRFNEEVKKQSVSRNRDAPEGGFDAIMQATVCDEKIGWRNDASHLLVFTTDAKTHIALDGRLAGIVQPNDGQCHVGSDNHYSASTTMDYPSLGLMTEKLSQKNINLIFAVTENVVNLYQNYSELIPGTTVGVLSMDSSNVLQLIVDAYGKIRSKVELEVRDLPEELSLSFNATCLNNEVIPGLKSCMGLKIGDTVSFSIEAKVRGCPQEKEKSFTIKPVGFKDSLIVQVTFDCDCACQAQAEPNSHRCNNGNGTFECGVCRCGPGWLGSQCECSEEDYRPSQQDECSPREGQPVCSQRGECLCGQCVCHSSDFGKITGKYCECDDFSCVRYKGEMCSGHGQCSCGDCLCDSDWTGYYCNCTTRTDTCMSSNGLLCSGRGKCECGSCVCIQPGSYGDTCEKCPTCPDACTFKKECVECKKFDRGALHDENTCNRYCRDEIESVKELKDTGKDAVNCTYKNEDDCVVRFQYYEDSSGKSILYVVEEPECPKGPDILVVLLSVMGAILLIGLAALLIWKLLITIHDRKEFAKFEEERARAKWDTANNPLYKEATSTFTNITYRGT

For `CC(C(=O)NCC(=O)NC[C@H](NC(=O)CNC(=O)C(C)N1CCN(CC(=O)O)CCN(CC(=O)O)CCN(CC(=O)O)CC1)C(=O)NC[C@H](NC(=O)[C@H](CNC(=O)CNC(=O)C(C)N1CCN(CC(=O)O)CCN(CC(=O)O)CCN(CC(=O)O)CC1)NC(=O)CNC(=O)C(C)N1CCN(CC(=O)O)CCN(CC(=O)O)CCN(CC(=O)O)CC1)C(=O)NCCCCc1cccc(C#Cc2cncc([C@H](CC(=O)O)NC(=O)[C@@H]3CCCN(C(=O)CCC4CCNCC4)C3)c2)c1)N1CCN(CC(=O)O)CCN(CC(=O)O)CCN(CC(=O)O)CC1` (stereo partly drawn) [Example 8], the IC50 in data set [1] turned out to be 0.021 µM. Besides, the r1 plasma in data set [2] (plasma) came out at 14.5 L/mmol/s. The compound also returned a r1 water in data set [2] (water) of 12.6 L/mmol/s.

What is called IC50 is the point on the concentration scale where inhibition reaches its midpoint.

For the origin of these results see US20160008490A1, “METAL CHELATE COMPOUNDS FOR BINDING TO THE PLATELET SPECIFIC GLYCOPROTEIN IIB/IIIA” (BAYER PHARMA AKTIENGESELLSCHAFT, priority 2013, published 2016).
